“And” between values parts separate entries of the source, which are not always exact repeats. Identical values can stand only once. Toxic doses and inconclusive results are not listed.
Tested on: AK4 lymphoid leukemia ip, C3AKF1 mice, survival
Test: NCI In Vivo Anticancer Drug Screen. Data for tumor model AK4 Lymphoid Leukemia (intraperitoneal) in C3AKF1 (CHKRF1) mice
Conditions: endpoint: median survival time, higher = longer survival
Method: The antitumor activity of compounds was measured in mice bearing transplantable tumors. Survival or tumor size were measured and the results are expressed as the measurement made in the treated group (T) divided by the measurement made in the vehicle treated control group (C). The tumor model used in this assay is AK4 Lymphoid Leukemia (intraperitoneal) in C3AKF1 (CHKRF1) mice

[1] = dose: 50.0 mg/kg/injection, schedule: Q01DX010 (ip), vehicle: saline
[2] = dose: 100.0 mg/kg/injection, schedule: Q01DX010 (ip), vehicle: saline
[3] = dose: 200.0 mg/kg/injection, schedule: Q01DX010 (ip), vehicle: saline
[4] = dose: 6.25 mg/kg/injection, schedule: Q01DX010 (ip), vehicle: saline
[5] = dose: 12.5 mg/kg/injection, schedule: Q01DX010 (ip), vehicle: saline
[6] = dose: 25.0 mg/kg/injection, schedule: Q01DX010 (ip), vehicle: saline
[7] = dose: 62.5 mg/kg/injection, schedule: Q01DX010 (ip), vehicle: saline
[8] = dose: 125.0 mg/kg/injection, schedule: Q01DX010 (ip), vehicle: saline
[9] = dose: 250.0 mg/kg/injection, schedule: Q01DX010 (ip), vehicle: saline
[10] = dose: 2.0 mg/kg/injection, schedule: Q01DX010 (ip), vehicle: saline
[11] = dose: 2.5 mg/kg/injection, schedule: Q01DX010 (ip), vehicle: saline
[12] = dose: 5.0 mg/kg/injection, schedule: Q01DX010 (ip), vehicle: saline
[13] = dose: 8.0 mg/kg/injection, schedule: Q01DX010 (ip), vehicle: saline
[14] = dose: 10.0 mg/kg/injection, schedule: Q01DX010 (ip), vehicle: saline
[15] = dose: 16.0 mg/kg/injection, schedule: Q01DX010 (ip), vehicle: saline
[16] = dose: 4.0 mg/kg/injection, schedule: Q01DX010 (ip), vehicle: saline
[17] = dose: 15.0 mg/kg/injection, schedule: Q01DX010 (ip), vehicle: saline
[18] = dose: 30.0 mg/kg/injection, schedule: Q01DX010 (ip), vehicle: saline
[19] = dose: 60.0 mg/kg/injection, schedule: Q01DX010 (ip), vehicle: saline

`O[C@H](CN1CC1)[C@@H](O)CN1CC1` was tested, and the T/C (dose: 250.0 micrograms/kg/injection, schedule: Q01DX010 (ip), vehicle: saline) was 164 % of control and the T/C (dose: 1000.0 micrograms/kg/injection, schedule: Q01DX010 (ip), vehicle: saline) was 105 % of control.

With `CC(=O)Nc1ccc2nc3ccc(NC(C)=O)cc3[n+](-c3ccccc3)c2c1` the T/C [1] was 117 % of control, the T/C [2] was 105 % of control and the T/C [3] was 117 % of control. For the same compound, the T/C (dose: 400.0 mg/kg/injection, schedule: Q01DX010 (ip), vehicle: saline) was 105 % of control.

In the case of `O=NN(CCCl)C(=O)NCCCl`, the T/C [4] is reported as 168 % of control and 185 % of control and the T/C [5] is reported as 160 % of control and 181 % of control.

`CN(C)/N=N/c1nc[nH]c1C(N)=O` was tested, and the T/C [2] was 155 % of control and 166 % of control and the T/C [3] was 177 % of control and 205 % of control.

For `O=c1c(O)cccc2cc(O)c(O)c(O)c12`, the T/C [6] was 94 % of control.

`O=CN(O)CC(=O)O` was tested, and the T/C [7] was 100 % of control and the T/C (dose: 500.0 mg/kg/injection, schedule: Q01DX010 (ip), vehicle: saline) was 90 % of control.

In the case of `CCN(CCNc1ccc(C)c2sc3cc(Cl)ccc3c(=O)c12)CC(C)O` (centres undefined), the T/C (dose: 31.3 mg/kg/injection, schedule: Q01DX010 (ip), vehicle: saline) is reported as 94 % of control, the T/C [7] is reported as 88 % of control and 94 % of control and the T/C [8] is reported as 94 % of control. For the same compound, the T/C [9] was 88 % of control.

In the case of `CN(Cc1cnc2nc(N)nc(N)c2n1)c1ccc(C(=O)N[C@@H](CCC(=O)O)C(=O)O)cc1`, the T/C (dose: 0.19 mg/kg/injection, schedule: Q01DX Z (ip), vehicle: saline) is reported as 120 % of control, the T/C (dose: 0.38 mg/kg/injection, schedule: Q01DX010 (ip), vehicle: other) is reported as 155 % of control and 181 % of control and the T/C (dose: 0.38 mg/kg/injection, schedule: Q01DX Z (ip), vehicle: saline) is reported as 180 % of control. The T/C (dose: 0.75 mg/kg/injection, schedule: Q01DX010 (ip), vehicle: other) was 160 % of control and 181 % of control, the T/C (dose: 0.75 mg/kg/injection, schedule: Q01DX Z (ip), vehicle: saline) was 253 % of control and 361 % of control and the T/C (dose: 1.5 mg/kg/injection, schedule: Q01DX010 (ip), vehicle: other) was 185 % of control and 256 % of control. For the same compound, the T/C (dose: 3.0 mg/kg/injection, schedule: Q01DX010 (ip), vehicle: other) was 175 % of control.

`NC(Cc1ccc(N(CCCl)CCCl)cc1)C(=O)O` (centres undefined) was tested, and the T/C [10] was 150 % of control, the T/C [11] was 164 % of control and the T/C [12] was 164 % of control. The T/C [13] was 150 % of control, the T/C [14] was 158 % of control and the T/C [15] was 100 % of control. The T/C (dose: 20.0 mg/kg/injection, schedule: Q01DX010 (ip), vehicle: saline) was 117 % of control.

For `C[C@]12C=CC(=O)C=C1CC[C@@H]1[C@@H]2C(=O)C[C@@]2(C)[C@H]1CC[C@]2(O)C(=O)CO`, the T/C (dose: 6.25 mg/kg/injection, schedule: Q01DX010 (sc), vehicle: steriod suspending solution) was 100 % of control, the T/C (dose: 12.5 mg/kg/injection, schedule: Q01DX010 (sc), vehicle: steriod suspending solution) was 100 % of control and 87 % of control and the T/C (dose: 12.5 mg/kg/injection, schedule: Q01DX Z (sc), vehicle: steriod suspending solution) was 93 % of control. The T/C (dose: 25.0 mg/kg/injection, schedule: Q01DX010 (sc), vehicle: steriod suspending solution) was 100 % of control and 87 % of control, the T/C (dose: 25.0 mg/kg/injection, schedule: Q01DX Z (sc), vehicle: steriod suspending solution) was 93 % of control and the T/C (dose: 50.0 mg/kg/injection, schedule: Q01DX010 (sc), vehicle: steriod suspending solution) was 90 % of control and 100 % of control (2×). For the same compound, the T/C (dose: 50.0 mg/kg/injection, schedule: Q01DX Z (sc), vehicle: steriod suspending solution) was 96 % of control and 100 % of control, the T/C (dose: 100.0 mg/kg/injection, schedule: Q01DX010 (sc), vehicle: steriod suspending solution) was 90 % of control and 118 % of control and the T/C (dose: 100.0 mg/kg/injection, schedule: Q01DX Z (sc), vehicle: steriod suspending solution) was 96 % of control. The T/C (dose: 200.0 mg/kg/injection, schedule: Q01DX010 (sc), vehicle: steriod suspending solution) was 105 % of control and 118 % of control and the T/C (dose: 200.0 mg/kg/injection, schedule: Q01DX Z (sc), vehicle: steriod suspending solution) was 96 % of control and 120 % of control.

In the case of `CCOC(N)=O`, the T/C [8] is reported as 100 % of control and 121 % of control, the T/C [9] is reported as 100 % of control and 106 % of control and the T/C (dose: 1000.0 mg/kg/injection, schedule: Q01DX010 (ip), vehicle: saline) is reported as 87 % of control.

With `Nc1nc(=S)c2ncn(C3OC(CO)C(O)C3O)c2[nH]1` (centres undefined) the T/C [10] was 117 % of control, the T/C [16] was 111 % of control and the T/C [13] was 117 % of control. The T/C [15] was 94 % of control.

In the case of `S=P(N1CC1)(N1CC1)N1CC1`, the T/C (dose: 0.75 mg/kg/injection, schedule: Q01DX010 (ip), vehicle: saline) is reported as 104 % of control and 105 % of control, the T/C (dose: 1.5 mg/kg/injection, schedule: Q01DX010 (ip), vehicle: saline) is reported as 100 % of control and 105 % of control and the T/C (dose: 3.0 mg/kg/injection, schedule: Q01DX010 (ip), vehicle: saline) is reported as 95 % of control and 104 % of control. For the same compound, the T/C (dose: 6.0 mg/kg/injection, schedule: Q01DX010 (ip), vehicle: saline) was 105 % of control and 109 % of control.

In the case of `CS(=O)(=O)OCCC(=O)N1CCN(C(=O)CCOS(C)(=O)=O)CC1`, the T/C [5] is reported as 94 % of control and 116 % of control, the T/C [6] is reported as 116 % of control and the T/C [2] is reported as 122 % of control.

`O=P1(N(CCCl)CCCl)NCCCO1` (centres undefined) was tested, and the T/C (dose: 11.3 mg/kg/injection, schedule: Q01DX010 (ip), vehicle: saline) was 175 % of control, the T/C (dose: 11.3 mg/kg/injection, schedule: Q01DX Z (ip), vehicle: saline) was 180 % of control and 189 % of control and the T/C (dose: 22.5 mg/kg/injection, schedule: Q01DX010 (ip), vehicle: saline) was 170 % of control and 187 % of control. For the same compound, the T/C (dose: 22.5 mg/kg/injection, schedule: Q01DX Z (ip), vehicle: saline) was 202 % of control and 210 % of control, the T/C (dose: 45.0 mg/kg/injection, schedule: Q01DX010 (ip), vehicle: saline) was 220 % of control and 375 % of control and the T/C (dose: 45.0 mg/kg/injection, schedule: Q01DX Z (ip), vehicle: saline) was 196 % of control and 204 % of control. For the same compound, the T/C (dose: 90.0 mg/kg/injection, schedule: Q01DX010 (ip), vehicle: saline) was 105 % of control and 225 % of control, the T/C (dose: 90.0 mg/kg/injection, schedule: Q01DX Z (ip), vehicle: saline) was 151 % of control and 168 % of control and the T/C (dose: 180.0 mg/kg/injection, schedule: Q01DX010 (ip), vehicle: saline) was 105 % of control and 118 % of control. The T/C (dose: 180.0 mg/kg/injection, schedule: Q01DX Z (ip), vehicle: saline) was 113 % of control and 120 % of control.

For `Clc1ncnc2nc[nH]c12`, the T/C (dose: 7.5 mg/kg/injection, schedule: Q01DX010 (ip), vehicle: saline) was 100 % of control and 87 % of control, the T/C [17] was 100 % of control and 114 % of control and the T/C [18] was 100 % of control and 87 % of control. For the same compound, the T/C [19] was 87 % of control and 100 % of control.

For `CN1CC[C@]23c4c5ccc(O)c4O[C@H]2C(=O)CC[C@H]3[C@H]1C5`, the T/C (dose: 0.5 mg/kg/injection, schedule: Q01DX010 (ip), vehicle: saline) was 94 % of control, the T/C (dose: 1.0 mg/kg/injection, schedule: Q01DX010 (ip), vehicle: saline) was 105 % of control and the T/C [10] was 94 % of control. The T/C [16] was 88 % of control and 94 % of control and the T/C [13] was 88 % of control.

With `N#[N+]c1cnc([O-])[nH]c1=O` the T/C (dose: 1.25 mg/kg/injection, schedule: Q01DX010 (ip), vehicle: saline) was 100 % of control, the T/C [11] was 100 % of control and the T/C [12] was 100 % of control. For the same compound, the T/C [14] was 100 % of control.

In the case of `CS(=O)(=O)OCCCCOS(C)(=O)=O`, the T/C [4] is reported as 87 % of control and 100 % of control, the T/C [5] is reported as 100 % of control and 87 % of control and the T/C [6] is reported as 100 % of control. The T/C [1] was 87 % of control and 100 % of control.

With `N#CCSc1ncnc2nc[nH]c12` the T/C [17] was 87 % of control, the T/C [18] was 93 % of control and the T/C [19] was 93 % of control. For the same compound, the T/C (dose: 120.0 mg/kg/injection, schedule: Q01DX010 (ip), vehicle: saline) was 87 % of control.

With `Nc1nc2n[nH]nc2c(=O)[nH]1` the T/C (dose: 25.0 mg/kg/injection, schedule: Q01DX010 (ip), vehicle: alkali diluted with saline) was 100 % of control and 115 % of control, the T/C (dose: 50.0 mg/kg/injection, schedule: Q01DX010 (ip), vehicle: alkali diluted with saline) was 105 % of control and 120 % of control and the T/C (dose: 100.0 mg/kg/injection, schedule: Q01DX010 (ip), vehicle: alkali diluted with saline) was 100 % of control and 110 % of control. The T/C (dose: 200.0 mg/kg/injection, schedule: Q01DX010 (ip), vehicle: alkali diluted with saline) was 100 % of control and 110 % of control.

In the case of `Nc1nc(N)c2nc(CNc3ccc(C(=O)NC(CCC(=O)O)C(=O)O)cc3)cnc2n1` (centres undefined), the T/C (dose: 0.05 mg/kg/injection, schedule: Q01DX010 (ip), vehicle: other) is reported as 120 % of control, the T/C (dose: 0.1 mg/kg/injection, schedule: Q01DX010 (ip), vehicle: other) is reported as 160 % of control and 215 % of control and the T/C (dose: 0.2 mg/kg/injection, schedule: Q01DX010 (ip), vehicle: other) is reported as 180 % of control and 300 % of control.

Source: PubChem BioAssay AID236 (DTP/NCI, 2004)
